# Assay results as given in patent US9056923B2, “Mimetic peptides derived from collagen type IV and their use for treating angiogenesis- and lymphagiogenesis-dependent diseases” (THE JOHNS HOPKINS UNIVERSITY, priority 2010, dated 2015).
# “Also recorded” adds a separate entry of the source. Ends that are not written are not given here.
# Tests used:
# [1] = tested on: lymphatic endothelial cells (LEC); assay: LEC migration assay; format: cell-based
# Method: The inhibitory potential of the peptides was measured using a real time migration assay system based on electrical impedance (RT-CIM, ACEA Biosciences, CA). CIM 16 well plates (Roche, 05665817001) are composed of a top and bottom chamber separated by a microporous (8 μm) polycarbonate membrane. The membrane was coated with fibronectin (20 μg/mL), and 45,000 cells/well in serum free media with or without peptides were added to the top compartment. Media with chemoattractant (i.e., fully supplemented EBM-2) was added to the bottom compartment of the chamber and the plate was incubated at 37° C. for 20 hours. The sensors integrated on the bottom side of the membrane monitor and continuously record changes in impedance as the cells move through the membrane. The RT-CIM technology allows for easy quantification of cell migration by monitoring the cell index derived from the measured impedances. Assays were performed in at least two independent replicates and each replicate was performed using two experimental duplicates.
# [2] = tested on: MDA-MB-231 breast cancer cells; assay: MDA-MB-231 adhesion assay; format: cell-based
# Method: Similar to the migration assays, the inhibition activity of the peptide in cellular adhesion was assessed using the RT-CIM technology. In this case, 25,000 cells/well were plated in 16 wells E-plates (Roche, Basel Switzerland) in the presence or absence of the peptide. The adhesion was monitored over time (3 hours) by measuring changes in the electrical impedance, which is a direct measure of the cells adhering on the electrodes. […] Assays were performed in at least two independent replicates and each replicate was performed using two experimental duplicates.
# [3] = tested on: VEGF mediated retinal neovascularization; assay: Rho/VEGF transgenic mice model of retinal neovascularization; format: in vivo; settings: 0.01, 0.1, or 1 μg into the mouse eye
# Method: The ocular Rho/VEGF transgenic mice model of wet age-related macular degeneration also was used to test some of the peptides. Transgenic mice in which the rhodopsin promoter drives expression of VEGF in photoreceptors have the onset of VEGF production at P7 and develop extensive NV along the outer surface of the retina by P21 (Okamoto et al., 1997; To be et al., 1998). Mice hemizygous for the transgene (n=15 for each dose) were given an intraocular injection of 1 μl of PBS containing 0.01, 0.1, or 1 μg of peptide or scramble peptide in one eye at P7 and P14 and at P21 the mice were anesthetized, perfused with fluorescein-labeled dextran, and the total area of neovascularization on the outer surface of the retina was measured on retinal flat mounts by image analysis as above.
# [4] = tested on: choroidal neovascularization; assay: Laser-induced choroidal neovascularization model; format: in vivo, C57BL/6 mice; settings: 0.01, 0.1, or 1 μg into the mouse eye
# Method: The ocular laser-induced choroidal neovascularization (NV) model of wet age-related macular degeneration was used for testing. 5-6-week-old female pathogen-free C57BL/6 mice were anesthetized with ketamine hydrochloride (100 mg/kg body weight) and pupils were dilated. Laser photocoagulation (75-μm spot size, 0.1-sec duration, 120 mW) was performed in the 9, 12, and 3 o'clock positions of the posterior pole of each eye with the slit lamp delivery system of an OcuLight GL diode laser (Iridex, Mountain View, Calif.) and a handheld cover slip as a contact lens to view the retina. Production of a tissue bubble by the laser, which indicates rupture of Bruch's membrane, is an important factor in obtaining choroidal NV; therefore, only burns in which a bubble is produced are included in the study. […] At day 7 the mice that received the naked peptides were dosed again whereas the mice that received the particles were administered PBS. Intravitreous injections were done under a dissecting microscope with a Harvard Pump Microinjection System and pulled glass micropipettes. After 14 days, the mice were perfused with 1 mL of PBS containing 50 mg/mL of fluorescein-labeled dextran (2×10^6 Daltons average molecular weight; Sigma-Aldrich, St. Louis, Mo.) and choroidal flat mounts were examined by fluorescence microscopy. Images were captured with a Nikon Digital Still Camera DXM1200 (Nikon Instruments Inc., New York, N.Y.). Image analysis software (Image-Pro Plus; Media Cybernetics, Silver Spring, Md.) was used to measure the total area of choroidal NV at each rupture site with the investigator masked with respect to treatment group.
# [5] = tested on: HUVEC; assay: HUVEC tube formation assay on Matrigel; format: cell-based, human
# Method in brief: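 HUVEC (15,000/well) plated on polymerized Matrigel in complete media with or without peptide for 19 h at 37 °C. Tube networks imaged by microscopy, one random field per well, in triplicate wells across at least two independent experiments.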
substance,measurement,setting,value
LRRFSTMPFMFININNVINF-NH2 [SP2024],inhibition of migration of LEC,[1],strong
same,inhibition of adhesion of MDA-MB-231 cells,[2],strong; also recorded: inhibition of cell adhesion
same,area of retinal neovascularization,[3],generally decreased
same,area of choroidal neovascularization,[4],generally decreased
same,Tube formation Inhibition (100 uM),[5]; 100 uM peptide,Complete
same,Activity in Tube formation,[5]; Yes/No summary,Yes
